Measured values from US20110112104A1, “TRICYCLIC COMPOUNDS, A PROCESS FOR THEIR PREPARATION AND PHARMACEUTICAL COMPOSITIONS CONTAINING THEM” (LES LABORATOIRES SERVIER, priority 2008, published 2011).

tested on: caspase 3; assay: Induction of caspase activity in vitro; assay type: cell-based, human; conditions: H146 small-cell lung carcinoma cells, compound at 10 μM, 6 hours exposure
Description: This study was carried out on the following human tumour cell line: • 1 small-cell lung carcinoma, H146. This cell line is cultured in an incubator at 37° C. in the presence of 5% CO2. More specifically, the H146 cells are cultured in complete RPMI 1640 medium containing 10% foetal calf serum, 2 mM glutamine, 50 units/ml of penicillin, 50 μg/ml of streptomycin and 10 mM Hepes buffer, pH=7.4. The cells are distributed onto 6-well plates and exposed to the test compounds for 6 hours. They are then collected and lysed and the caspase activity is measured in the cell lysates. This enzymatic measurement is carried out by measuring the appearance of a fluorigenic cleavage product (Pharmacia).

SMILES | caspase 3 activity in cell lysates
CN(C)CC[C@H](CSc1ccccc1)Nc1ccc(S(=O)(=O)NC(=O)c2cc3c(cn2)N2CCN(Cc4ccccc4-c4ccc(Cl)cc4)CC2C3)cc1[N+](=O)[O-].Cl.Cl.Cl (stereo partly drawn) [Example 1, N-({2-[(4′-Chloro[1,1′-biphenyl]-2-yl)methyl]-1,2,3,4,10,10a-hexahydropyrido[4′,3′:4,5]pyrrolo[1,2-a]pyrazin-8-yl}carbonyl)-4-({(1R)-3-(dimethylamino)-1-[(phenylsulphanyl)methyl]propyl}amino)-3-nitro-benzenesulphonamide trihydrochloride] | 15395 RFU (Relative Fluorescence Units)
CN(C)CC[C@H](CSc1ccccc1)Nc1ccc(S(=O)(=O)NC(=O)c2ccc3c(n2)CC2CN(Cc4ccccc4-c4ccc(Cl)cc4)CCN32)cc1[N+](=O)[O-].Cl.Cl (stereo partly drawn) [Example 2, N-({8-[(4′-Chloro[1,1′-biphenyl]-2-yl)methyl]-6,7,8,9,9a,10-hexahydropyrido[2′,3′:4,5]pyrrolo[1,2-a]pyrazin-2-yl}carbonyl)-4-({(1R)-3-(dimethylamino)-1-[(phenylsulphanyl)methyl]propyl}amino)-3-nitro-benzenesulphonamide dihydrochloride] | 9948 RFU (Relative Fluorescence Units)
CN(C)CC[C@H](CSc1ccccc1)Nc1ccc(S(=O)(=O)NC(=O)c2cnc3c(c2)CC2CN(Cc4ccccc4-c4ccc(Cl)cc4)CCN32)cc1[N+](=O)[O-].Cl.Cl.Cl (stereo partly drawn) [Example 3, N-({7-[(4′-Chloro[1,1′-biphenyl]-2-yl)methyl]-5,5a,6,7,8,9-hexahydropyrido[3′,2′:4,5]pyrrolo[1,2-a]pyrazin-3-yl}carbonyl)-4-({(1R)-3-(dimethylamino)-1-[(phenylsulphanyl)methyl]propyl}amino)-3-nitro-benzenesulphonamide trihydrochloride] | 17776 RFU (Relative Fluorescence Units)
